Experimental data published in patent publication US9073882B2, “Inhibitors of the renal outer medullary potassium channel” (Merck Sharp & Dohme Corp., priority 2010, dated 2015).
Where two headings read alike, the source gives them in different places.

Target: hROMK1 (Kir1.1) (Homo sapiens (Human), UniProt P48048)
Experiment: ^86Rb^+ Efflux Assay
Type: cell-based
Conditions: CHO-DHFR- cells stably expressing hROMK1 (Kir1.1)
[1] = value in parentheses at the end of each Example, read-out: IC50 in the ^86Rb^+ Efflux Assay
[2] = Table 1, read-out: ^86Rb^+ Efflux Assay IC50

hROMK1 (Kir1.1), sequence (P48048 whole entry): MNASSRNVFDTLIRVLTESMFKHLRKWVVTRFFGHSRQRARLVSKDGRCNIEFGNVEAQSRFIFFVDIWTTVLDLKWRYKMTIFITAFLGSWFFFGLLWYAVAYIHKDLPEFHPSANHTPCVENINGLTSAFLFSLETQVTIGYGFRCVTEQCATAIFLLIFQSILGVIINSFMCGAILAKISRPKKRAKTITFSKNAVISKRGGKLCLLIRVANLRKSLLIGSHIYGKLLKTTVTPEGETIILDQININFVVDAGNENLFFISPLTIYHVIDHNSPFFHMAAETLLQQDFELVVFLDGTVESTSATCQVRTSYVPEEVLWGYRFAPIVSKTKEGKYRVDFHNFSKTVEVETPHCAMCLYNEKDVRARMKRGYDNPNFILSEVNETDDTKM

Structure (SMILES) | IC50 [1] [nM] | IC50 [2] [nM]
O=[N+]([O-])c1ccc(CCN2CCN(CCc3ccc([N+](=O)[O-])cn3)CC2)cc1 [Example 2, 1-[2-(4-Nitrophenyl)ethyl]-4-[2-(5-nitropyridin-2-yl)ethyl]piperazine] | 280 | 
N#Cc1ccc2c(c1)CCC(N1CCN(CCc3ccc([N+](=O)[O-])cc3)CC1)C2 (stereo not shown) [Example 3, 6-{4-[2-(4-Nitrophenyl)ethyl]piperazin-1yl}-5,6,7,8-tetrahydronaphthalene-2-carbonitrile] | 50 | 
O=[N+]([O-])c1ccc(CCN2CCN(CCc3ccc([N+](=O)[O-])cc3)C(CF)C2)cc1 (stereo not shown) [Example 5, 2-(Fluoromethyl)-1,4-bis[2-(4-nitrophenyl)ethyl]piperazine] | 180 | 
COC(=O)[C@H](Cc1ccc([N+](=O)[O-])cc1)N1CCN(CCc2ccc([N+](=O)[O-])cc2)CC1 [Example 8, Methyl(2S)-3-(4-nitrophenyl)-2-{4-[2-(4-nitrophenyl)ethyl]piperazin-1-yl}propanoate] | 510 | 
CC1(C)CN(CCc2ccc([N+](=O)[O-])cc2)CCN1CCc1ccc([N+](=O)[O-])cc1 [Example 9, 2,2-Dimethyl-1,4-bis[2-(4-nitrophenyl)ethyl]piperazine] | 210 | 210
O=[N+]([O-])c1ccc(CCN2C[C@@H]3C[C@H]2CN3CCc2ccc([N+](=O)[O-])cc2)cc1 [Example 10, (1S,4S)-2,5-Bis[2-(4-nitrophenyl)ethyl]-2,5-diazabicyclo[2.2.1]heptane] | 110 | 110
O=[N+]([O-])c1ccc(CCN2CCN(CCc3ccc([N+](=O)[O-])cc3)C(C3CC3)C2)cc1 (stereo not shown) [Example 11, 2-Cyclopropyl-1,4-bis[2-(4-nitrophenyl)ethyl]piperazine] | 860 | 
O=[N+]([O-])c1ccc(CCN2CCN(CCc3ccc([N+](=O)[O-])cc3)C(C(F)F)C2)cc1 (stereo not shown) [Example 12, 2-(Difluoromethyl)-1,4-bis[2-(4-nitrophenyl)ethyl]piperazine] | 440 | 
O=[N+]([O-])c1ccc(CCN2CCN(CCc3ccc([N+](=O)[O-])cc3)C(CO)C2)cc1 (stereo not shown) [Example 13, {1,4-Bis[2-(4-nitrophenyl)ethyl]piperazin-2-yl}methanol] | 260 | 
O=[N+]([O-])c1ccc(CCN2CCN(CCc3ccc([N+](=O)[O-])cc3C(F)(F)F)CC2)cc1 [Example 15, 1-[2-(4-Nitrophenyl)ethyl]-4-{2-[4-nitro-2-(trifluoromethyl)phenyl]ethyl}piperazine] | 440 | 
O=[N+]([O-])c1ccc(CCN2CC3CCC(C2)N3CCc2ccc([N+](=O)[O-])cc2)cc1 [Example 16, 3,8-Bis-[2-(4-nitrophenyl)ethyl]-3,8-diazabicyclo[3.2.1]octane] | 190 | 
CC(Cc1ccc([N+](=O)[O-])cc1)N1CCN(C(C)Cc2ccc([N+](=O)[O-])cc2)CC1 (stereo not shown) [Example 19, 1,4-Bis[1-methyl-2-(4-nitrophenyl)ethyl]piperazine] | 330 | 
O=[N+]([O-])c1ccc(CCN2CC3CCC2CN3CCc2ccc([N+](=O)[O-])cc2)cc1 [Example 20, 2,5-Bis[2-(4-nitrophenyl)ethyl]-2,5-diazabicyclo[2.2.2]octane] | 210 | 
COC(=O)CC1CN(CCc2ccc([N+](=O)[O-])cc2)CCN1CCc1ccc([N+](=O)[O-])cc1 (stereo not shown) [Example 21, Methyl{1,4-bis[2-(4-nitrophenyl)ethyl]piperazin-2-yl}acetate] | 390 | 
COc1cc(CCN2CCN(CCc3ccc([N+](=O)[O-])cc3)CC2)ccc1C#N [Example 22, 2-Methoxy-4-(2-{4-[2-(4-nitrophenyl)ethyl]piperazin-1-yl}ethyl)benzonitrile] | 52 | 
Cc1cc(C#N)ccc1CCN1CCN(CCc2ccc([N+](=O)[O-])cc2)CC1 [Example 23, 3-Methyl-4-(2-{4-[2-(4-nitrophenyl)ethyl]piperazin-1-yl}ethyl)benzonitrile] | 62 | 
Cc1cc(CCN2CCN(CCc3ccc([N+](=O)[O-])cc3)CC2)ccc1C#N [Example 24, 2-Methyl-4-(2-{4-[2-(4-nitrophenyl)ethyl]piperazin-1-yl}ethyl)benzonitrile] | 190 | 
N#Cc1ccc2c(c1)CC[C@H](N1CCN(CCc3ccc([N+](=O)[O-])cc3)CC1)C2 [Example 25, (6S)-6-{4-[2-(4-Nitrophenyl)ethyl]piperazin-1-yl}-5,6,7,8-tetrahydronaphthalene-2-carbonitrile] | 83 | 
N#Cc1ccc2c(c1)CC[C@@H](N1CCN(CCc3ccc([N+](=O)[O-])cc3)CC1)C2 [Example 26, (6R)-6-{4-[2-(4-Nitrophenyl)ethyl]piperazin-1-yl}-5,6,7,8-tetrahydronaphthalene-2-carbonitrile] | 66 | 66
c1cc2nonc2cc1CCN1CCN(C2CCc3cc(-n4cnnn4)ccc3C2)CC1 (stereo not shown) [Example 27, 5-(2-{4-[6-(1H-Tetrazol-1-yl)-1,2,3,4-tetrahydronaphthalen-2-yl]piperazin-1-yl}ethyl)-2,1,3-benzoxadiazole] | 980 | 

Structure (SMILES) | IC50 [1] [nM] | IC50 [2] [nM]
N#Cc1c(F)cc(CCN2CCN(CCc3ccc([N+](=O)[O-])cc3)CC2)cc1F [Example 28, 2,6-Difluoro-4-(2-{4-[2-(4-nitrophenyl)ethyl]piperazin-1-yl}ethyl)benzonitrile] | 160 | 
N#Cc1ccc2c(c1)CC(N1CCN(CCc3ccc([N+](=O)[O-])cc3)CC1)C2 (stereo not shown) [Example 29, 2-{4-[2-(4-Nitrophenyl)ethyl]piperazin-1-yl}-2,3-dihydro-1H-indene-5-carbonitrile] | 730 | 
O=[N+]([O-])c1ccc(CCN2CCN(C3Cc4ccc([N+](=O)[O-])cc4C3)CC2)cc1 (stereo not shown) [Example 30, 1-(5-Nitro-2,3-dihydro-1H-inden-2-yl)-4-[2-(4-nitrophenyl)ethyl]piperazine] | 310 | 
COc1cc(C#N)ccc1CCN1CCN(CCc2ccc([N+](=O)[O-])cc2)CC1 [Example 31, 3-Methoxy-4-(2-{4-[2-(4-nitrophenyl)ethyl]piperazin-1-yl}ethyl)benzonitrile] | 300 | 
N#Cc1ccc(CCN2CCN(CCc3ccc([N+](=O)[O-])cc3)CC2)cc1F [Example 32, 2-Fluoro-4-(2-{4-[2-(4-nitrophenyl)ethyl]piperazin-1-yl}ethyl)benzonitrile] | 240 | 
O=C1OCc2cc(CCN3CCN(C4CCc5cc6nonc6cc5C4)CC3)ccc21 (stereo not shown) [Example 33, 5-{2-[4-(5,6,7,8-Tetrahydronaphtho[2,3-c][1,2,5]oxadiazol-6-yl)piperazin-1-yl]ethyl}-2-benzofuran-1(3H)-one] | 210 | 
N#Cc1cccc2c1CCC2CN1CCN(CCc2ccc3c(c2)COC3=O)CC1 (stereo not shown) [Example 34, 1-((4-(2-(1-Oxo-1,3-dihydroisobenzofuran-5-yl)ethyl)piperazin-1-yl)methyl)-2,3-dihydro-1H-indene-4-carbonitrile] | 270 | 
N#Cc1ccc2c(c1)OCCC2CN1CCN(CCc2ccc3c(c2)COC3=O)CC1 (stereo not shown) [Example 36, 4-({4-[2-(1-Oxo-1,3-dihydro-2-benzofuran-5-yl)ethyl]piperazin-1-yl}methyl)-3,4-dihydro-2H-chromene-7-carbonitrile] | 92 | 
N#Cc1ccc2c(c1)CCCC2CN1CCN(CCc2ccc3c(c2)COC3=O)CC1 (stereo not shown) [Example 37, 5-({4-[2-(1-Oxo-1,3-dihydro-2-benzofuran-5-yl)ethyl]piperazin-1-yl}methyl)-5,6,7,8-tetrahydronaphalene-2-carbonitrile] | 460 | 
N#Cc1cc(F)c(CCN2CCN(CCc3ccc4c(c3)COC4=O)CC2)cc1F [Example 39, 2,5-Difluoro-4-[2-[4-[2-(1-oxo-3H-isobenzofuran-5-yl)ethyl]piperazin-1-yl]ethyl]benzonitrile] | 230 | 
O=C1OCc2cc(CCN3CCN(CCc4ccc(-n5cnnn5)nc4)CC3)ccc21 [Example 42, 5-[2-[4-[2-[6-(Tetrazol-1-yl)-3-pyridyl]ethyl]piperazin-1-yl]ethyl]-3H-isobenzofuran-1-one] | 910 | 
Cc1c(CCN2CCN(CCc3ccc(-n4cnnn4)nc3)CC2)ccc2c1COC2=O [Example 43, 4-Methyl-5-[2-[4-[2-[6-(tetrazol-1-yl)-3-pyridyl]ethyl]piperazin-1-yl]ethyl]-3H-isobenzofuran-1-one] | 610 | 620
COc1cc(C(C)CN2CCN(CCc3ccc4c(c3)COC4=O)CC2)ccc1C#N (stereo not shown) [Example 44, 2-Methoxy-4-[1-methyl-2-[4-[2-(1-oxo-3H-isobenzofuran-5-yl)ethyl]piperazin-1-yl]ethyl]benzonitrile] | 280 | 
COc1cc(CC(C)N2CCN(CCc3ccc4c(c3)COC4=O)CC2)ccc1C#N (stereo not shown) [Example 48, 2-Methoxy-4-[2-[4-[2-(1-oxo-3H-isobenzofuran-5-yl)ethyl]piperazin-1-yl]propyl]benzonitrile] | 210 | 
Cc1c(CCN2CCN(CCc3ccc(C#N)c(OC(F)F)c3)CC2)ccc2c1COC2=O [Example 49, 2-(Difluoromethoxy)-4-[2-[4-[2-(4-methyl-1-oxo-3H-isobenzofuran-5-yl)ethyl]piperazin-1-yl]ethyl]benzonitrile] | 160 | 
COc1cc(CCN2CCN(CCc3ccc4c(c3)COC4=O)C(C(F)(F)F)C2)ccc1C#N (stereo not shown) [Example 51, 2-Methoxy-4-(2-{4-[2-(1-oxo-1,3-dihydro-2-benzofuran-5-yl)ethyl]-3-(trifluoromethyl)piperazin-1-yl}ethyl)benzonitrile] | 650 | 
COc1cc(CCN2CCN(CCc3ccc4c(c3)COC4=O)CC2)c(F)cc1C#N [Example 52, 5-Fluoro-2-methoxy-4-(2-{4-[2-(1-oxo-1,3-dihydro-2-benzofuran-5-yl)ethyl]piperazin-1-yl}ethyl)benzonitrile] | 68 | 
COc1cc(CCN2CCN(CCc3ccc4c(c3C)COC4=O)CC2)c(F)cc1C#N [Example 53, 5-Fluoro-2-methoxy-4-(2-{4-[2-(4-methyl-1-oxo-1,3-dihydro-2-benzofuran-5-yl)ethyl]piperazin-1-yl}ethyl)benzonitrile] | 34 | 
COc1cc(CCN2CCN(CCc3cc(OC)c(C#N)cc3F)CC2)c(F)cc1C#N [Example 54, 4,4′-(Piperazine-1,4-diyldiethane-2,1-diyl)bis(5-fluoro-2-methoxybenzonitrile)] | 340 | 
